Measured values reported in ChEMBL document CHEMBL1671649, “Mutations in three distinct loci cause resistance to peptide deformylase inhibitors in Bacillus subtilis” (2009).
In brackets after ≈: the same amount, converted by molar mass.

Columns and labels:
Format in all cases: functional
Bacillus subtilis [1] = assay: Antimicrobial activity against Bacillus subtilis harboring fmt AGA to TGA and R3stop mutation after 17 hrs by microtiter broth dilution method
Bacillus subtilis [2] = assay: Antimicrobial activity against Bacillus subtilis harboring glyA with deletion mutation of base pair 661 to 663 after 17 hrs by microtiter broth dilution method
Bacillus subtilis [3] = assay: Antimicrobial activity against Bacillus subtilis harboring fmt with 295 to 639 base pair deletion mutation after 17 hrs by microtiter broth dilution method
Bacillus subtilis [4] = assay: Antimicrobial activity against Bacillus subtilis harboring fmt with deletion mutation at base pair 745 after 17 hrs by microtiter broth dilution method
Bacillus subtilis [5] = assay: Antimicrobial activity against Bacillus subtilis harboring fmt S110P mutant after 17 hrs by microtiter broth dilution method
Bacillus subtilis [6] = assay: Antimicrobial activity against Bacillus subtilis harboring folD with deletion mutation of base pair 507 to 518 after 17 hrs by microtiter broth dilution method
Bacillus subtilis [7] = assay: Antimicrobial activity against Bacillus subtilis harboring folD T184M mutant after 17 hrs by microtiter broth dilution method
Bacillus subtilis [8] = assay: Antimicrobial activity against Bacillus subtilis harboring fmt H108R mutant after 17 hrs by microtiter broth dilution method
Bacillus subtilis [9] = assay: Antimicrobial activity against Bacillus subtilis harboring folD E17Q mutant after 17 hrs by microtiter broth dilution method
Bacillus subtilis [10] = assay: Antimicrobial activity against Bacillus subtilis harboring fmt G118D mutant after 17 hrs by microtiter broth dilution method
Bacillus subtilis [11] = assay: Antimicrobial activity against Bacillus subtilis harboring fmt P113L mutant after 17 hrs by microtiter broth dilution method
Bacillus subtilis [12] = assay: Antimicrobial activity against Bacillus subtilis harboring fmt P120L mutant after 17 hrs by microtiter broth dilution method
Bacillus subtilis [13] = assay: Antimicrobial activity against Bacillus subtilis harboring fmt with deletion mutation at base pair 119 after 17 hrs by microtiter broth dilution method
Bacillus subtilis [14] = assay: Antimicrobial activity against Bacillus subtilis harboring fmt with base pair insertion at position 745 after 17 hrs by microtiter broth dilution method
Bacillus subtilis [15] = assay: Antimicrobial activity against Bacillus subtilis harboring fmt R116C mutant after 17 hrs by microtiter broth dilution method
Bacillus subtilis [16] = assay: Antimicrobial activity against Bacillus subtilis harboring folD S71Q, S72Q and L73P mutant after 17 hrs by microtiter broth dilution method
Bacillus subtilis [17] = assay: Antimicrobial activity against Bacillus subtilis harboring fmt R116P mutant after 17 hrs by microtiter broth dilution method

Question: How did the MIC (Bacillus subtilis [1]) turn out when `CCCCC[C@H](CC(=O)NO)C(=O)N[C@H](C(=O)N1CCC[C@H]1CO)C(C)C` [ACTINONIN] was run?
Answer: 192 µg/mL (≈ 498 µM)

Question: And the MIC (Bacillus subtilis [2])?
Answer: > 512 µg/mL

Question: What about the MIC (Bacillus subtilis [3]) of the same molecule?
Answer: > 512 µg/mL

Question: And the MIC (Bacillus subtilis [4])?
Answer: 96 µg/mL (≈ 249 µM)

Question: What about the MIC (Bacillus subtilis [5]) of the same molecule?
Answer: > 512 µg/mL

Question: And the MIC (Bacillus subtilis [6])?
Answer: > 512 µg/mL

Question: What about the MIC (Bacillus subtilis [7]) of the same molecule?
Answer: 192 µg/mL (≈ 498 µM)

Question: And the MIC (Bacillus subtilis [8])?
Answer: > 512 µg/mL

Question: And the MIC (Bacillus subtilis [9])?
Answer: 192 µg/mL (≈ 498 µM)

Question: And the MIC (Bacillus subtilis [10])?
Answer: > 512 µg/mL

Question: What about the MIC (Bacillus subtilis [11]) of the same molecule?
Answer: 96 µg/mL (≈ 249 µM)

Question: What about the MIC (Bacillus subtilis [12]) of the same molecule?
Answer: > 512 µg/mL

Question: What about the MIC (Bacillus subtilis [13]) of the same molecule?
Answer: 192 µg/mL (≈ 498 µM)

Question: And the MIC (Bacillus subtilis [14])?
Answer: 96 µg/mL (≈ 249 µM)

Question: And the MIC (Bacillus subtilis [15])?
Answer: 48 µg/mL (≈ 125 µM)

Question: And the MIC (Bacillus subtilis [16])?
Answer: > 512 µg/mL

Question: And the MIC (Bacillus subtilis [17])?
Answer: > 512 µg/mL
